The results in this text go back to US6451814B1, “Heterocyclic β-3 adrenergic receptor agonists” (Wyeth, priority 2000, dated 2002).

Structures can show the parent of a compound that is named as a salt. A value given as a limit tells only on which side of the number the result lay.

Data set [1] addresses T1, human β3-adrenergic receptor (Homo sapiens, UniProt P13945).
T1 construct: Full length β3 AR clones (402 amino acids) containing the last 6 amino acids of hβ3—AR are prepared; expressed in transfected cells; host or cells: CHO cells
Put plainly: cAMP response (SPA kit) in CHO cells transfected with human β3 adrenergic receptor. The format is cell-based. The settings on record: for EC50: CHO cells expressing human β3-AR, 10^-9 M to 10^-5 M, 30 min at 37° C., cAMP by SPA, read-out: EC50(β3); for IA(β3): maximal response of compound compared to maximal response of isoproterenol at 10^-5 M, CHO cells, human β3-AR.

T1 sequence (P13945 whole entry): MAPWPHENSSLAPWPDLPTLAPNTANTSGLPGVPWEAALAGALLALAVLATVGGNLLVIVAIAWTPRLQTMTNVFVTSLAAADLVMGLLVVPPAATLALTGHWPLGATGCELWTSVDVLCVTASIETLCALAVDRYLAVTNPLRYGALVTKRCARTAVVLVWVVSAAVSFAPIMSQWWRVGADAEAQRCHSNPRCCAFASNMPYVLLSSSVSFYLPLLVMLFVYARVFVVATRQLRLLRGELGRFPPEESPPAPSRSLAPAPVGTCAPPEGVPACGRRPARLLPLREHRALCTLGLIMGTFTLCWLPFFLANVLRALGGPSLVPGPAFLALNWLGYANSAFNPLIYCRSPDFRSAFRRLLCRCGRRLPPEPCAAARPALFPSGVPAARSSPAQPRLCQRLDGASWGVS

The melting point is the temperature, or range, at which the solid turns liquid. `CCCCCCCCNC(=O)N1CCC(S(=O)(=O)c2ccc(CCNC[C@H](O)COc3ccc4c(c3)OCO4)cc2)CC1` [Example 49, 4-(4-{2-[(2S)-3-(Benzo[1,3]dioxol-5-yloxy)-2-hydroxy-propylamino]-ethyl}-benzenesulfonyl)-piperidine-1-carboxylic Acid Octylamide] gave a melting point of 84 to 86 °C.

The compound `Oc1ccc(OC[C@@H](O)CNCCc2ccc(NC3CCN(c4nc(-c5ccccc5)cs4)CC3)cc2)cc1` (as salt: hydrochloride) [Example 117, 4-[(2S)-2-Hydroxy-3-(2-{4-[1l-(4-phenyl-thiazol-2-yl)-piperidin-4-ylamino]-phenyl}-ethylamino)-propoxy]-phenol] registered a melting point of 80 to 82 °C.

`CS(=O)(=O)Nc1cc([C@@H](O)CNCCc2ccc(NC3CCN(c4nc(-c5ccccc5)cs4)CC3)cc2)ccc1O` (as salt: salt) [Example 118, (R)-N-{2-Hydroxy-5-[1-hydroxy-2-(2-{4-[1-(4-phenyl-thiazol-2-yl)-piperidin-4-ylamino]-phenyl}-ethylamino)-ethyl]-phenyl}-methanesulfonamide] had a melting point of 142 to 145 °C. Compound `Cc1ccc(S(=O)(=O)N2CCC(Nc3ccc(CCNC[C@H](O)COc4ccc(O)cc4)cc3)CC2)cc1` (as salt: salt) [Example 112, 4-[(2S)-2-Hydroxy-3-(2-{4-[1-(toluene-4-sulfonyl)-piperidin-4-ylamino]-phenyl}-ethylamino)-propoxy]-phenol] gave a melting point of 89 to 92 °C.

`O=C(NCc1ccc(F)cc1)N1CCC(Oc2ccc(CCNC[C@H](O)COc3ccc(O)cc3)cc2)CC1` (as salt: salt) [Example 56, 4-(4-{2-[(2S)2-Hydroxy-3-(4-hydroxy-phenoxy)-propylamino]-ethyl}-phenoxy)-piperidine-1-carboxylic Acid 4-fluoro-benzylamide] gave a melting point of 160 to 162 °C.

`CCCCCCCCNC(=O)N1CCC(Oc2ccc(CCNC[C@H](O)COc3ccc(O)cc3)cc2)CC1` (as salt: salt) [Example 54, 4-[4-(2-{[(2S)-2-Hydroxy-3-(4-hydroxyphenoxy)propyl]amino}ethyl)phenoxy]-N-octyl-1-piperidinecarboxamide]: the melting point was 153 to 155 °C. `CCCCCCCCNC(=O)N1CCC(Nc2ccc(CCNCC(O)c3ccc(O)c(C(N)=O)c3)cc2)CC1` (stereo not drawn) (as salt: salt) [Example 7, 4-(4-{2-[2-(3-Carbamoyl-4-hydroxy-phenyl)-2-hydroxy-ethylamino]-ethyl}-phenylamino)-piperidine-1-carboxylic Acid Octylamide]: the melting point fell in the range of 101 to 104 °C. `CCCCCCCCNC(=O)N1CCC(N(C(C)=O)c2ccc(CCNC[C@H](O)COc3ccc(O)cc3)cc2)CC1` (as salt: salt) [Example 8, 4-[Acetyl-(4-{2-[(2S)-2-hydroxy-3-(4-hydroxy-phenoxy)-propylamino]-ethyl}-phenyl)-amino]-piperidine-1-carboxylic Acid Octylamide] yielded a melting point of 71 to 74 °C. As to `O=C(NCCCC1CCCC1)N1CCC(Nc2ccc(CCNC[C@H](O)COc3ccc(O)cc3)cc2)CC1` (as salt: salt) [Example 12, 1-4-(4-{2-[(2S)-2-Hydroxy-3-(4-hydroxy-phenoxy)-propylamino]-ethyl}-phenylamino)-piperidine-1-carboxylic Acid (3-cyclopentyl-propyl)-amide], the melting point was in the range of 71 to 74 °C. As for `O=C(NCc1ccc(Cl)cc1Cl)N1CCC(Nc2ccc(CCNC[C@H](O)COc3ccc(O)cc3)cc2)CC1` (as salt: ammonium) [Example 20, 4-(4-{2-[(2S)-2-Hydroxy-3-(4-hydroxy-phenoxy)-propylamino]-ethyl}-phenylamino)-piperidine-1-carboxylic Acid 2,4-dichloro-benzylamide], the melting point was in the range of 93 to 99 °C.

Turning to `CCCCCCCCNC(=O)N1CCC(Nc2ccc(CCNC[C@H](O)COc3ccc(F)cc3)cc2)CC1` [Example 3, 4-(4-{2-[(2S)-3-(4-Fluoro-phenoxy)-2-hydroxy-propylamino]-ethyl}-phenylamino)-piperidine-1-carboxylic Acid Octylamide], the melting point was in the range of 58 to 64 °C. Regarding `CCCCCCCCNC(=O)N1CCC(Nc2ccc(CCNC[C@H](O)CON=C3CCCc4c(O)cccc43)cc2)CC1` [Example 64, 4-(4-{2-[(2S)-2-Hydroxy-3-(5-hydroxy-3,4-dihydro-2H-naphthalen-1-ylideneaminooxy)-propylamino]-ethyl}-phenylamino)-piperidine-1-carboxylic Acid Octylamide], the melting point lay within 85 to 87 °C.

Compound `CS(=O)(=O)Nc1cc([C@@H](O)CNCCc2ccc(NC3CCN(C(=O)c4ccc(C(=O)O)cc4)CC3)cc2)ccc1O` (as salt: salt) [Example 105, 4-[4-(4-{2-[(2R)-2-Hydroxy-2-(4-hydroxy-3-methanesulfonylamino-phenyl)-ethylamino]-ethyl}-phenylamino)-piperidine-1-carbonyl]-benzoic Acid] gave a melting point of more than 200 °C. As usually defined, the EC50 is the concentration giving half of the maximal effect. As for `CCCCCCCCNC(=O)N1CCC(N(C(C)=O)c2ccc(CCNC[C@H](O)COc3ccc(O)cc3)cc2)CC1` [Example 8, 4-[Acetyl-(4-{2-[(2S)-2-hydroxy-3-(4-hydroxy-phenoxy)-propylamino]-ethyl}-phenyl)-amino]-piperidine-1-carboxylic Acid Octylamide], in data set [1], the 50% effective concentration (EC50) is 0.064 µM and the “IA(β3)” value came out at 0.82. For `Cc1ccsc1C(=O)N1CCC(Nc2ccc(CCNC[C@H](O)COc3cccc4[nH]c(=O)[nH]c34)cc2)CC1` [Example 101, 4-[(2S)-2-Hydroxy-3-(2-{4-[1-(3-methyl-thiophene-2-carbonyl)-piperidin-4-ylamino]-phenyl}-ethylamino)-propoxy]-1,3-dihydro-benzoimidazol-2-one], in data set [1], the half-maximal effective concentration (EC50) amounted to 0.01 µM and the “IA(β3)” value is given as 0.63.

`O=C(NCc1ccc(O)cc1F)N1CCC(Nc2ccc(CCNCC(O)COc3ccc(O)cc3)cc2)CC1` (stereo not drawn) [Example 83, 4-(4-{2-[2-Hydroxy-3-(4-hydroxy-phenoxy)-propylamino]-ethyl}-phenylamino)-piperidine-1-carboxylic Acid 2-fluoro-4-hydroxy-benzylamide]: the “IA(β3)” value in data set [1] was 0.88. On to `O=C(c1cc2cc(Br)ccc2[nH]1)N1CCC(Nc2ccc(CCNC[C@H](O)COc3ccc(O)cc3)cc2)CC1` [Example 96, (5-Bromo-1H-indol-2-yl)-[4-(4-{2-[(2S)-2-hydroxy-3-(4-hydroxy-phenoxy)-propylamino]-ethyl}-phenylamino)-piperidin-1-yl]-methanone], for which, in data set [1], the EC50 was 0.306 µM and the “IA(β3)” value is reported as 0.83. For `CCCCCCNC(=O)Nc1ccc(S(=O)(=O)N2CCC(Nc3ccc(CCNC[C@H](O)COc4ccc(O)cc4)cc3)CC2)cc1` [Example 108, 1-Hexyl-3-{4-[4-(4-{2-[(2S)-2-hydroxy-3-(4-hydroxy-phenoxy)-propylamino]-ethyl}-phenylamino)-piperidine-1-sulfonyl]-phenyl}-urea] the same measures were 0.007 µM and 1.08. As for `O=C(NCC1(c2ccccc2)CCCC1)N1CCC(S(=O)(=O)c2ccc(CCNC[C@H](O)COc3ccc(O)cc3)cc2)CC1` [Example 46, 4-(4-{2-[(2S)-2-Hydroxy-3-(4-hydroxy-phenoxy)-propylamino]-ethyl}-benzenesulfonyl)-piperidine-1-carboxylic Acid (1-phenyl-cyclopentylmethyl)-amide], in data set [1], the 50% effective concentration (EC50) amounted to 0.162 µM and the “IA(β3)” value came out at 0.82. With `COc1cccc(CCNC(=O)N2CCC(Nc3ccc(CCNC[C@H](O)COc4ccc(O)cc4)cc3)CC2)c1` [Example 6, 4-(4-{2-[(2S)-2-Hydroxy-3-(4-hydroxy-phenoxy)-propylamino]-ethyl}-phenylamino)-piperidine-1-carboxylic Acid [2-(3-methoxy-phenyl)-ethyl]-amide], in data set [1], the concentration for a half-maximal effect (EC50) is 0.106 µM and the “IA(β3)” value is on record as 1.21.

Take “4-[(2S)-2-Hydroxy-3-(2-{4-[-(1-methyl-1H-imidazole-4-sulfonyl)-piperidin-4-ylamino]-phenyl}-ethylamino)-propoxy]-phenol [Example 113]”: in data set [1], the 50% effective concentration (EC50) amounted to 0.13 µM and the “IA(β3)” value is on record as 1. For `O=C(O)C1CCN(C(=O)N2CCC(Nc3ccc(CCNC[C@H](O)COc4ccc(O)cc4)cc3)CC2)CC1` [Example 62, 1-[4-(4-{2-[(2S)-2-Hydroxy-3-(4-hydroxy-phenoxy)-propylamino]-ethyl}-phenylamino)-piperidine-1-carbonyl]-piperidine-4-carboxylic acid], in data set [1], the 50% effective concentration (EC50) is 0.134 µM and the “IA(β3)” value was found to be 1.05. As for “1H-Indole-2-carboxylic Acid (4-{2-[(2S)-2-hydroxy-3-(4-hydroxy-phenoxy)-propylamino]-ethyl}-phenyl)-amide [Example 91]”, in data set [1], the EC50 was 0.051 µM and the “IA(β3)” value stood at 1. Turning to `CN(C(=O)CCNC(=O)N1CCC(Nc2ccc(CCNC[C@H](O)COc3ccc(O)cc3)cc2)CC1)c1ccc(Cl)cc1` [Example 82, 4-(4-{2-[(2S)-2-Hydroxy-3-(4-hydroxy-phenoxy)-propylamino]-ethyl}-phenylamino)-piperidine-1-carboxylic Acid {2-[(4-chloro-phenyl)-methyl-carbamoyl]-ethyl}-amide], in data set [1], the concentration for a half-maximal effect (EC50) stood at 0.053 µM and the “IA(β3)” value was 0.94.

Take `O=C(NCCc1cccc(F)c1)N1CCC(Nc2ccc(CCNC[C@H](O)COc3ccc(O)cc3)cc2)CC1` [Example 88, 4-(4-{2-[(2S)-2-Hydroxy-3-(4-hydroxy-phenoxy)-propylamino]-ethyl}-phenylamino)-piperidine-1-carboxylic Acid [2-(3-fluoro-phenyl)-ethyl]-amide]: in data set [1], the EC50 was found to be 0.021 µM and the “IA(β3)” value is on record as 0.81.
